How the values were obtained:
Mus musculus = assay: (§1) AUC in mouse plasma at 20 mg/kg, po; format: ADME, organism-based; parameters: dose 20 mg/kg, route oral; settings: in vivo
[1] = as §1; format: ADME, organism-based; parameters: dose 20 mg/kg, route oral; settings: plasma

SMILES	AUC (Mus musculus)	AUC [1]
Cc1cc(N2CCOCC2)cc2[nH]c(-c3c(NC[C@@H](O)c4cccc(Cl)c4)cc[nH]c3=O)nc12	8.2 µM·h	
COC(=O)N1CCN(C2CCN(c3cc(C)c4nc(-c5c(NC[C@@H](O)c6cccc(Cl)c6)cc[nH]c5=O)[nH]c4c3)CC2)CC1		11 µM·h
Cc1cc(N2CCOCC2)cc2[nH]c(-c3c(NCCn4cc(Cl)cn4)cc[nH]c3=O)nc12	51 µM·h	
Cc1cc(N2CCOCC2)cc2[nH]c(-c3c(NCCc4ncn(C)c4Cl)cc[nH]c3=O)nc12	90 µM·h	

The remaining lines, values ahead:

AUC (Mus musculus)	AUC [1]	SMILES
	52 µM·h	COC(=O)N1CCN(C2CCN(c3cc(C)c4nc(-c5c(NCCn6cc(Cl)cn6)cc[nH]c5=O)[nH]c4c3)CC2)CC1
	48 µM·h	COC(=O)N1CCN(C2CCN(c3cc(C)c4nc(-c5c(NCCc6ncn(C)c6Cl)cc[nH]c5=O)[nH]c4c3)CC2)CC1
